This test relates to H358 (KRAS G12C mutant) cells. Briefly: Tumor cell proliferation inhibition experiment (Cell Titer-Glo luminescent cell viability assay). The settings on record: Homo sapiens, NCI-H358, 72 h, read-out: NCI-H538 IC50(nm). Background: Cellular ATP, detected with luciferase, serves as a proxy for viable cell number.

Experimental: H358 (KRAS G12C mutant) cells were digested, centrifuged, and resuspended. Cell density was determined using a Scepter automated cell counter. The cells were diluted to a solution containing 44,000 cells per milliliter. The adjusted cell solution was added to 90 µL per well in a 96-well culture plate. The 96-well plate was placed in a 37°C, 5% CO2 incubator. After culturing the cells for 24 hours, different concentrations of the test compound were added. The cells were then cultured with the compound for 72 hours in the presence of 10% fetal bovine serum. The ATP content was measured using the Cell Titer-Glo luminescent cell viability assay kit (see manufacturer's instructions for details) to assess cell growth inhibition. In short, 30 µL of Cell Titer-Glo reagent was added to each well, and the plate was shaken for 10 minutes to induce cell lysis. The fluorescence signal was detected and recorded using a Fluoroskan Ascent FL (Thermo). The maximum signal value was obtained from cells treated with dimethyl sulfoxide for 72 hours. Minimum signal value was obtained from a single culture medium (zero cell count). Inhibition rate % = (maximum signal value - minimum signal value) / (maximum signal value - minimum signal value × 100%). Data was processed using GraphPadprism 5 software. IC50 values were calculated by fitting an S-shaped dose-response curve.

For the molecule `C=CC(=O)N1CCN(c2nc(OC[C@@]34CCCN3C[C@H](F)C4)nc3c2CS(=O)(=O)[C@@H](c2nc(N)cc(C)c2C(F)(F)F)C3)[C@@H](C)C1` [Compound 5B, 1-((3S)-4-((7R)-7-(6-amino-4-methyl-3-(trifluoromethyl)pyridin-2-yl)-2-(((2R,7AS)-2-fluorotetrahydro-1H-pyrrolazin-7a(5H)-yl)methoxy)-6,6-dioxo-7,8-dihydro-5H-thiaran[4,3-d]pyrimidin-4-yl)-3-methylpyrazin-1-yl)prop-2-en-1-one], the IC50 was < 10 nM.

Regarding `C=CC(=O)N1CCN(c2nc(OC[C@@]34CCCN3C[C@H](F)C4)nc3c2CS(=O)(=O)C(c2c(F)c(N)cc(C)c2C(F)(F)F)C3)C[C@@H]1CC#N` (stereo partly drawn) [Compound 3, 2-((2S)-1-Acryloyl-4-(7-(3-amino-2-fluoro-5-methyl-6-(trifluoromethyl)phenyl)-2-(((2R,7AS)-2-fluorotetrahydro-1H-pyrrolazin-7a(5H)-yl)methoxy)-6,6-dioxo-7,8-dihydro-5H-thiaran[4,3-d]pyrimidin-4-yl)pyrazin-2-yl)acetonitrile], the half-inhibitory concentration (IC50) was < 10 nM.

In the case of `C=CC(=O)N1CCN(c2nc(OC[C@@]34CCCN3C[C@H](F)C4)nc3c2CS(=O)(=O)[C@H](c2nc(N)cc(C)c2C(F)(F)F)C3)[C@@H](C)C1` [Compound 5A, 1-((3S)-4-((7S)-7-(6-amino-4-methyl-3-(trifluoromethyl)pyridin-2-yl)-2-(((2R,7AS)-2-fluorotetrahydro-1H-pyrrolazin-7a(5H)-yl)methoxy)-6,6-dioxo-7,8-dihydro-5H-thiaran[4,3-d]pyrimidin-4-yl)-3-methylpyrazin-1-yl)prop-2-en-1-one], the IC50 is < 10 nM.

As to `C=C(F)C(=O)N1CCN(c2nc(OC[C@@]34CCCN3C[C@H](F)C4)nc3c2CS(=O)(=O)[C@H](c2c(F)c(N)cc(C)c2C(F)(F)F)C3)C[C@@H]1CC#N` [Compound 4A, 2-((2S)-4-((7S)-7-(3-amino-2-fluoro-5-methyl-6-(trifluoromethyl)phenyl)-2-(((2R, 7A S)-2-fluorotetrahydro-1H-pyrrolazin-7a(5H)-yl)methoxy)-6,6-dioxo-7,8-dihydro-5H-thiaran[4,3-d]pyrimidin-4-yl)-1-(2-fluoroacryloyl)pyrazin-2-yl)acetonitrile], the half-maximal inhibitory concentration (IC50) was < 10 nM.

As for `C=C(F)C(=O)N1CCN(c2nc(OC[C@@]34CCCN3C[C@H](F)C4)nc3c2CS(=O)(=O)[C@@H](c2c(F)c(N)cc(C)c2C(F)(F)F)C3)[C@@H](C)C1` [Compound 2B, 1-((3S)-4-((7R)-7-(3-amino-2-fluoro-5-methyl-6-(trifluoromethyl)phenyl)-2-(((2R,7A S)-2-fluorotetrahydro-1H-pyrrolazin-7a(5H)-yl)methoxy)-6,6-dioxo-7,8-dihydro-5H-thiaran[4,3-d]pyrimidin-4-yl)-3-methylpyrazin-1-yl)-2-fluoroprop-2-en-1-one], the IC50 is < 10 nM.

For the molecule `C=CC(=O)N1CCN(c2nc(OC[C@@]34CCCN3C[C@H](F)C4)nc3c2CS(=O)(=O)[C@H](c2nc(N)cc(C)c2C(F)(F)F)C3)C[C@@H]1CC#N` [Compound 7A, 2-((2S)-4-((7S)-7-(6-amino-4-methyl-3-(trifluoromethyl)pyridin-2-yl)-2-(((2R,7AS)-2-fluorotetrahydro-1H-pyrrolazin-7a(5H)-yl)methoxy)-6,6-dioxo-7,8-dihydro-5H-thiaran[4,3-d]pyrimidin-4-yl)-1-(acryloyl)pyrazin-2-yl)acetonitrile], the 50% inhibitory concentration (IC50) is < 10 nM.

Usually IC50 stands for the concentration needed to halve the response being measured.

For the origin of these results see patent EP4818179A1, “PREPARATION FOR AND USE OF PYRIMIDO-THIOPYRANDIONE INHIBITOR FOR KRAS G12C MUTANT PROTEIN” (Ya Therapeutics Inc, priority 2024, dated 2025).
